Source: publication PMC6291754 (Frontiers in Microbiology, 2018)
Several values for one entry are separate records, joined by “and”; a condition that tells them apart may be missing. Identical values can stand only once. Like-named read-outs stand apart in the source and are kept apart here.

Tests used:
[1] = system: A/PR/8/34-PA/I38T; type: cell-based, influenza A(H1N1) virus; details: read-out: IC50, plaque reduction
[2] = system: A/PR/8/34 (PA 38I wild-type); assay: microbe, parasite or virus in culture; type: cell-based, influenza A(H1N1) virus; details: Influenza A virus, PR/8, MDCK, 72 h, read-out: IC50, plaque reduction
[3] = system: A/Chiba/1017/2009 (NA H275Y); type: cell-based, influenza A(H1N1)pdm09 virus
[4] = system: A/Chiba/1016/2009 (NA 275H wild-type); assay: microbe, parasite or virus in culture; type: cell-based, influenza A(H1N1)pdm09 virus; details: Influenza A virus, MDCK, 72 h, read-out: IC50, plaque reduction
[5] = system: A/Fukui/45/2004 (NA E119V); type: cell-based, influenza A(H3N2) virus
[6] = system: A/Fukui/20/2004 (NA 119E wild-type); assay: microbe, parasite or virus in culture; type: cell-based, influenza A(H3N2) virus; details: Influenza A virus, MDCK, 72 h, read-out: IC50, plaque reduction
[7] = system: A/Kagoshima/2/2012 (NA R292K); type: cell-based, influenza A(H3N2) virus
[8] = system: A/Kagoshima/4/2012 (NA 292R wild-type); assay: microbe, parasite or virus in culture; type: cell-based, influenza A(H3N2) virus; details: Influenza A virus, MDCK, 72 h, read-out: IC50, plaque reduction
[9] = system: B/Perth/211/2001-197E (NA D197E); type: cell-based, influenza B virus
[10] = system: B/Perth/211/2001-197D (NA 197D wild-type); assay: microbe, parasite or virus in culture; type: cell-based; details: Influenza B virus, MDCK, 72 h, read-out: IC50, plaque reduction
[11] = system: A/PR/8/34-PA/I38T; type: cell-based, influenza A(H1N1) virus
[12] = system: A/PR/8/34 (PA 38I wild-type); assay: microbe, parasite or virus in culture; type: cell-based, influenza A(H1N1) virus; details: Influenza A virus, PR/8, MDCK, 24 h, read-out: IC50, focus reduction
[13] = system: A/Chiba/1017/2009 (NA H275Y); type: cell-based, influenza A(H1N1)pdm09 virus; remark: listed apart in the source
[14] = system: A/Chiba/1016/2009 (NA 275H wild-type); assay: microbe, parasite or virus in culture; type: cell-based, influenza A(H1N1)pdm09 virus; details: Influenza A virus, MDCK, 24 h, read-out: IC50, focus reduction
[15] = system: A/Fukui/45/2004 (NA E119V); type: cell-based, influenza A(H3N2) virus; remark: listed apart in the source
[16] = system: A/Fukui/20/2004 (NA 119E wild-type); assay: microbe, parasite or virus in culture; type: cell-based, influenza A(H3N2) virus; details: Influenza A virus, MDCK, 24 h, read-out: IC50, focus reduction
[17] = system: A/Kagoshima/2/2012 (NA R292K); type: cell-based, influenza A(H3N2) virus; remark: listed apart in the source
[18] = system: A/Kagoshima/4/2012 (NA 292R wild-type); assay: microbe, parasite or virus in culture; type: cell-based, influenza A(H3N2) virus; details: Influenza A virus, MDCK, 24 h, read-out: IC50, focus reduction
[19] = system: B/Perth/211/2001-197E (NA D197E); type: cell-based, influenza B virus; remark: listed apart in the source
[20] = system: B/Perth/211/2001-197D (NA 197D wild-type); assay: microbe, parasite or virus in culture; type: cell-based; details: Influenza B virus, MDCK, 24 h, read-out: IC50, focus reduction
[21] = system: influenza A(H1N1) viruses with PA I38T; details: cited from earlier work
[22] = system: influenza A(H1N1) virus with PA I38T; details: cited from earlier work
[23] = system: influenza A(H1N1) virus with PA I38F; details: cited from earlier work
[24] = system: influenza A(H1N1) virus with PA E23K; details: cited from earlier work
[25] = system: influenza B virus with PA G548R; details: cited from earlier work
[26] = system: influenza A(H3N2) virus with PA I38T; details: cited from earlier work
[27] = system: influenza A(H3N2) virus with PA I38M; details: cited from earlier work
[28] = system: influenza A(H3N2) virus with PA A37T; details: cited from earlier work
[29] = system: influenza A(H3N2) virus with PA E199G; details: cited from earlier work
[30] = system: influenza A(H3N2) virus with PA N412D; details: cited from earlier work
[31] = system: influenza A(H3N2) virus with PA V517A; details: cited from earlier work
[32] = system: influenza A(H3N2) virus with PA P632S; details: cited from earlier work
[33] = target: A/Chiba/1017/2009 (NA H275Y) neuraminidase (NA) (Influenza A virus, UniProt C7FH46, H275Y); type: biochemical, influenza A(H1N1)pdm09 virus
[34] = target: A/Fukui/45/2004 (NA E119V) neuraminidase (NA) (Influenza A virus, UniProt C6ELZ0, E119V); type: biochemical, influenza A(H3N2) virus
[35] = target: A/Kagoshima/2/2012 (NA R292K) neuraminidase (NA) (Influenza A virus, UniProt J9TKI7, R292K); type: biochemical, influenza A(H3N2) virus
[36] = target: B/Perth/211/2001-197E (NA D197E) neuraminidase (NA) (Influenza B virus, UniProt Q3S340, D197E); type: biochemical
[37] = target: B/Perth/211/2001-197D (NA 197D wild-type) neuraminidase (NA) (Influenza B virus, UniProt Q3S340); type: biochemical
[38] = target: A/PR/8/34 (PA 38I wild-type) neuraminidase (NA) (Influenza A virus, UniProt P03468); type: biochemical, influenza A(H1N1) virus
[39] = target: A/Chiba/1016/2009 (NA 275H wild-type) neuraminidase (NA) (Influenza A virus, UniProt C7FH46); type: biochemical, influenza A(H1N1)pdm09 virus
[40] = target: A/Fukui/20/2004 (NA 119E wild-type) neuraminidase (NA) (Influenza A virus, UniProt C6ELZ0); type: biochemical, influenza A(H3N2) virus
[41] = target: A/Kagoshima/4/2012 (NA 292R wild-type) neuraminidase (NA) (Influenza A virus, UniProt J9TKI7); type: biochemical, influenza A(H3N2) virus
[42] = target: A/PR/8/34-PA/I38T neuraminidase (NA) (Influenza A virus, UniProt P03468)
[43] = read-out: IC50, plaque reduction
[44] = read-out: IC50, focus reduction

With `O=C1c2c(O)c(=O)ccn2N([C@@H]2c3ccccc3SCc3c2ccc(F)c3F)[C@@H]2COCCN12` [Baloxavir, baloxavir acid] the IC50 [1] was 2.72 nM, the IC50 [2] was 0.05 ± 0.02 nM and the “IC50 fold-change, plaque reduction” value [3] was 0.21 ± 0.02 (0.8) fold. The IC50 [3, 43] was 0.21 nM, the IC50 [4] was 0.27 ± 0.09 nM and the “IC50 fold-change, plaque reduction” value [5] was 0.15 ± 0.02 (0.4) fold. For the same compound, the IC50 [5, 43] was 0.15 nM, the IC50 [6] was 0.42 ± 0.15 nM and the “IC50 fold-change, plaque reduction” value [7] was 0.22 ± 0.09 (1.5) fold. For the same compound, the IC50 [7, 43] was 0.22 nM, the IC50 [8] was 0.15 ± 0.06 nM and the “IC50 fold-change, plaque reduction” value [9] was 5.68 ± 1.00 (2.6) fold. The IC50 [9, 43] was 5.68 nM, the IC50 [10] was 2.2 ± 0.28 nM and the “IC50 fold-change, focus reduction” value [11] was 44 fold. The IC50 [11, 44] was 7.4 nM, the IC50 [12] was 0.17 ± 0.03 nM and the “IC50 fold-change, focus reduction” value [13] was 0.53 ± 0.15 (1.0) fold. For the same compound, the IC50 [13, 44] was 0.53 nM, the IC50 [14] was 0.5 ± 0.02 nM and the “IC50 fold-change, focus reduction” value [15] was 0.62 ± 0.04 (0.5) fold. The IC50 [15, 44] was 0.62 nM, the IC50 [16] was 1.18 ± 0.49 nM and the “IC50 fold-change, focus reduction” value [17] was 0.59 ± 0.29 (2.0) fold. The IC50 [17, 44] was 0.59 nM, the IC50 [18] was 0.29 ± 0.08 nM and the “IC50 fold-change, focus reduction” value [19] was 5.63 ± 2.34 (1.0) fold. The IC50 [19, 44] was 5.63 nM, the IC50 [20] was 5.41 ± 1.99 nM and the “fold-change in EC50” value [21] was 41 fold and 40 fold. For the same compound, the “fold higher EC50” value [22] was 27.2 fold, the “fold higher EC50” value [23] was 10.6 fold and the “fold higher EC50” value [24] was 4.7 fold. The “effect of substitution on baloxavir susceptibility” value (“effect of substitution” for short) [25] was “does not affect baloxavir susceptibility”, the “fold higher EC50” value [26] was 56.6 fold and the “fold higher EC50” value [27] was 13.8 fold. For the same compound, the “fold higher EC50” value [28] was 8.1 fold, the “fold higher EC50” value [29] was 4.5 fold and the “effect of substitution” value [30] was “not affected”. For the same compound, the “effect of substitution” value [31] was “not affected” and the “effect of substitution” value [32] was “not affected”.
With `CO[C@@H]([C@@H]1OC(C(=O)O)=C[C@H](NC(=N)N)[C@H]1NC(C)=O)[C@H](O)CO` [Laninamivir] the “NA inhibitor susceptibility (WHO criteria)” value (from here on “NA inhibitor susceptibility”) [33] was 0.3 ± 0.1 NI, the “NA inhibitor susceptibility” value [34] was 1.2 ± 0.1 NI and the “NA inhibitor susceptibility” value [35] was 3.9 ± 0.1 NI. For the same compound, the “NA inhibitor susceptibility” value [36] was 1.9 ± 0.1 NI and the IC50 [37] was 1.3 ± 0.3 nM.
For `CC(=O)N[C@H]1[C@H]([C@H](O)[C@H](O)CO)OC(C(=O)O)=C[C@@H]1N=C(N)N` [Zanamivir, zanamivir], the “NA inhibitor susceptibility” value [33] was 0.5 ± 0.1 NI.
With `CCC(CC)[C@H](NC(C)=O)[C@@H]1[C@H](O)[C@@H](C(=O)O)C[C@H]1N=C(N)N` [Peramivir, peramivir] the IC50 [38] was 0.09 ± 0.01 nM, the IC50 [33] was 28 ± 3.9 nM and the IC50 [39] was 0.1 ± 0.1 nM. The IC50 [34] was 0.2 ± 0.1 nM, the “NA inhibitor susceptibility” value [34] was 0.2 ± 0.1 NI and the IC50 [40] was 0.2 ± 0.1 nM. The IC50 [35] was 35.2 ± 2.6 nM, the IC50 [41] was 0.1 ± 0.1 nM and the IC50 [36] was 16.2 ± 6 nM. The “NA inhibitor susceptibility” value [36] was 16.2 ± 6.0 RI (key: normal inhibition (NI); RI: a 5- to 50-fold increase in IC50 for influenza B viruses; HRI: influenza B viruses with >50-fold increase in IC50), the IC50 ([37]; read-out: IC50) was 0.4 ± 0.1 nM and the IC50 [42] was 0.09 nM. The IC50 fold-change [42] was 0.09 ± 0.01 (1.0) fold.
